This note sets out measurements from patent US5225532A, “Symmetrical bipeptides containing a polyalkylene glycol residue, method of preparation and use in the assay of proteases” (Serbio, priority 1990, dated 1993).

Where a SMILES comes first, the peptide text is derived from it. [ ]: non-standard residue; d: D form. The star is where a group is joined. Cha = N[C@@H](CC1CCCCC1)C(=O)O; dChg = N[C@@H](C(=O)O)C1CCCCC1; pNA = O=[N+]([O-])c1ccc(N*)cc1; dAbu = CC[C@@H](N)C(=O)O; Abu = CC[C@H](N)C(=O)O; Ms = CS(=O)(=O)*

Holding throughout (assay type): biochemical
For assay [1], the target named is Thrombin (Homo sapiens, UniProt P00734). As to the kind of experiment: Enzymic hydrolysis of chromogenic substrate by thrombin (ΔOD/min). Conditions: for Activity towards Thrombin (hydrolysis rate relative to reference): equimolar doses, activity of reference CP 2 taken as 100%, hydrolysis rate as ΔOD/min. On the procedure: (§1) The tripeptide compounds of formula I and their addition salts are useful in the determination of the enzymes involved in hemostasis. In particular, they constitute specific substrates for Factor Xa, plasmin or thrombin. The recommended method of determining these enzymes comprises bringing a given amount of a tripeptide of formula I or of one of its addition salts (at a concentration of the order of 10 mg/ml) into contact, in an appropriate aqueous liquid medium such as a buffered isotonic solution, with a test sample (diluted if appropriate) which may contain the target enzyme, for at least 0.5 h at a temperature of between RT and 40° C., especially 37° C.
(§2) The activity of the tripeptides according to the invention towards enzymes involved in hemostasis was determined by conventional methods such as those described in EP-A-0 280 160 (see page 14), the hydrolysis rate being assessed by the variation in optical density with time (ΔOD/min). The results obtained have been collated in Table II below, where the activity of reference products (CP 1 to CP 3) is specified as being equal to 100% for the sake of convenience.
(§3) Table II below summarizes the results of the comparative tests which were carried out at equimolar doses with the products of the invention and with standard substances, whose activity was taken as being equal to 100%.

Assay [2] deals with Plasmin (Homo sapiens, UniProt P00747). The assay can be described thus: Enzymic hydrolysis of chromogenic substrate by plasmin (ΔOD/min). Conditions: equimolar doses, activity of reference CP 3 taken as 100%. On the procedure: as §1, §2, §3
Chain of Plasmin (P00747 581-810 limits assumed, species assumed): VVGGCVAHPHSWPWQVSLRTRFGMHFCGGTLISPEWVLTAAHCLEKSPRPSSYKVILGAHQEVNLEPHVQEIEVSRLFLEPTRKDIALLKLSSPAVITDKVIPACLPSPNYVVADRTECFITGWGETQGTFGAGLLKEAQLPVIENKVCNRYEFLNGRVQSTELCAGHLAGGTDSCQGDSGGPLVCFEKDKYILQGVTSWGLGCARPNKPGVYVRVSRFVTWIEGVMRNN
Chain of Plasmin (P00747 97-580 partner limits assumed, species assumed): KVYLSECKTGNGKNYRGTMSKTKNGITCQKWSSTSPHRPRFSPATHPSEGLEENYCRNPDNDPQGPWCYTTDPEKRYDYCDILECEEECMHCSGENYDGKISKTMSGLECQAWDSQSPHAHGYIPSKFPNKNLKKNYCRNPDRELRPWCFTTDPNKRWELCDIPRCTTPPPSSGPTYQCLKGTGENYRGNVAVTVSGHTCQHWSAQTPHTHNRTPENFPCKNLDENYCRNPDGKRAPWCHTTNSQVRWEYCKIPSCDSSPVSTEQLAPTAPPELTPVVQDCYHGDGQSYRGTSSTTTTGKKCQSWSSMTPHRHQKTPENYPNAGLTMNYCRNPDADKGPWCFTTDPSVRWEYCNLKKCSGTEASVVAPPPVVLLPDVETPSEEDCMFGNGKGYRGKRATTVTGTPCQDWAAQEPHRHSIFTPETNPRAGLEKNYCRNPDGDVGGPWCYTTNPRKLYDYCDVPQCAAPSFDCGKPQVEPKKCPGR
Assay [3] addresses Factor Xa (Homo sapiens, UniProt P00742). As to the kind of experiment: Enzymic hydrolysis of chromogenic substrate by Factor Xa (ΔOD/min). Conditions: equimolar doses, activity of reference CP 1 taken as 100%. On the procedure: as §1, §2, §3

Chain of Factor Xa (P00742 235-488 limits assumed): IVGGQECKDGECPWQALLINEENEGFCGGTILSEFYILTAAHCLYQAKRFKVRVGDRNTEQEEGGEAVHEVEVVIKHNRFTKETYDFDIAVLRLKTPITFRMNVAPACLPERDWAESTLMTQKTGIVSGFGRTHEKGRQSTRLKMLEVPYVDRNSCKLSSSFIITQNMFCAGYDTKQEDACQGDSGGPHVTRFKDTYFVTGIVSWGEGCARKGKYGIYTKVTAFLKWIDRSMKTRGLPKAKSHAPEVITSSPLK
Chain of Factor Xa (P00742 41-179 partner limits assumed): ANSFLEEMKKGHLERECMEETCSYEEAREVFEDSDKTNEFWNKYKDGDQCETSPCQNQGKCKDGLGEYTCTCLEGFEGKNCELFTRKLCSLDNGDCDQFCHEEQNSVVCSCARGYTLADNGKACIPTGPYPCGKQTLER

For the compound `CC(C)C[C@@H](NS(C)(=O)=O)C(=O)NCC(=O)N[C@@H](CCCNC(=N)N)C(=O)Nc1ccc([N+](=O)[O-])cc1` [CP 1, MeSO2D-Leu--GlyL-Arg-pNA.AcOH, reference compound] (Ms-[dL]-Gly-Arg-pNA), in assay [1], the “Activity towards Thrombin (hydrolysis rate relative to reference)” value is 18%. Further, in assay [2], the “Activity towards Plasmin (hydrolysis rate relative to reference)” value was 30%. Besides, the “Activity towards Xa (hydrolysis rate relative to reference)” value in assay [3] was determined as 100%.
The corresponding values for `CC[C@H](NC(=O)[C@H](N)C1CCCCC1)C(=O)N[C@@H](CCCNC(=N)N)C(=O)Nc1ccc([N+](=O)[O-])cc1` [CP 2, HD-CHG-L-Abu-L-Arg-pNA.2AcOH, reference compound] (H-[dChg]-[Abu]-Arg-pNA) are 100%, 77% and 14%.
With `CC[C@@H](N)C(=O)N[C@@H](CC1CCCCC1)C(=O)N[C@@H](CCCNC(=N)N)C(=O)Nc1ccc([N+](=O)[O-])cc1` [CP 3, HD-Abu-L-CHA-L-Arg-pNA.2AcOH, reference compound] (H-[dAbu]-[Cha]-Arg-pNA), the “Activity towards Thrombin (hydrolysis rate relative to reference)” value in assay [1] came to 10%. In assay [2], the “Activity towards Plasmin (hydrolysis rate relative to reference)” value is recorded as 100%. Moreover, the “Activity towards Xa (hydrolysis rate relative to reference)” value in assay [3] is 14%.
Regarding “PEG200 (CO-D-CHA-Gly-L-Arg-pNA)2 [Ex. 7]”, the “Activity towards Thrombin (hydrolysis rate relative to reference)” value in assay [1] is 21%. Further, the “Activity towards Plasmin (hydrolysis rate relative to reference)” value in assay [2] worked out at 112%. For the same compound, the “Activity towards Xa (hydrolysis rate relative to reference)” value in assay [3] was 45%.
The corresponding values for “PEG200 (D-Glu(OBzl)-L-Pro-L-Arg-pNA)2.2AcOH [Ex. 4]” are 45%, 289% and 11%.
The corresponding values for “PEG200 (D-Leu-Gly-L-Arg-pNA)2.2AcOH [Ex. 6]” are 23%, 188% and 105%.
On to “PEG200 (D-Nle-L-CHA-L-Arg-pNA)2.2AcOH [Ex. 5]”, for which the “Activity towards Thrombin (hydrolysis rate relative to reference)” value in assay [1] is 110%. In assay [1] (in words, versus CP 1 as printed), the “Sensitivity towards thrombin compared with reference substrate” value is listed as “more sensitive than the reference substrate CP 1”. In addition, the “Activity towards Plasmin (hydrolysis rate relative to reference)” value in assay [2] was found to be 15%. Also, in assay [3], the “Activity towards Xa (hydrolysis rate relative to reference)” value is 20%.
Consider “PEG200 (Gly-L-Pro-L-Arg-pNA)2.2AcOH [Ex. 2]”, for which the “Activity towards Thrombin (hydrolysis rate relative to reference)” value in assay [1] turned out to be 34%. Moreover, the “Activity towards Plasmin (hydrolysis rate relative to reference)” value in assay [2] is given as 130%. Moreover, the “Activity towards Xa (hydrolysis rate relative to reference)” value in assay [3] stood at 6%.
The corresponding values for “PEG300 (D-Leu-Gly-L-Arg-pNA)2.2AcOH [Ex. 8]” are 25%, 150% and 60%.
For “PEG400 (D-Leu-Gly-L-Arg-pNA)2.2AcOH [Ex. 9]” the same measures were 34%, 165% and 74%.
The corresponding values for “PEG600 (CO-Gly-L-Pro-L-Arg-pNA)2 [Ex. 3]” are 50%, 122% and 10%.
